Values of other authors in patent EP4555997A1, “WATER-SOLUBLE COMPOSITION COMPRISING UROLITHIN” (Science4Beauty Sp. z o.o., priority 2023, dated 2025).

Details: HPLC-determined, water at 30° C

SMILES: O=c1oc2cc(O)ccc2c2ccc(O)cc12 [UroA, 3,8-dihydroxy-6H-benzo[c]chromen-6-one]
- solubility in water: less than 0.01 g/L
